Measurements taken from US4743616A, “Novel biologically active compound having anti-prolyl endopeptidase activity” (Suntory Limited, priority 1984, dated 1988).

Experiments:
prolyl endopeptidase = test: Measurement of anti-prolyl endopeptidase activity; type: biochemical; conditions: substrate Z-glycyl-proline-β-naphthylamide, phosphate buffer pH 7.0, absorbance at 410 nm
Procedure: The method of Yoshimoto and Tsuru (T. Yoshimoto and D. Tsuru, Agr. Biol. Chem. 42, 2417, 1978) was used to measure the anti-prolyl endopeptidase activities of several compounds of the present invention. A mixture of 0.0025M Z-glycyl-proline-β-naphthylamide (0.25 ml), 0.1M phosphate buffer (pH, 7.0; 0.99 ml) and a solution of a particular anti-prolyl endopeptidase compound (0.01 ml) was incubated in a test tube at 37° C. for 3 minutes. Thereafter, 0.1 ml of a solution of prolyl endopeptidase (0.2 U/ml) was added and the mixture was heated at 35° C. for 10 minutes. After the reaction, 2.0 ml of Triton X-100 in 1M acetate buffer (pH, 4.0 ) was added to the reaction mixture until the final concentration of the surfactant was 10%. The mixture was left at room temperature for 15 minutes and the absorance (a) at 410 nm was measured.
A sample for blind test was prepared by using the buffer instead of the anti-prolyl endopeptidase compound and its absorbance (b) was also measured. The percent inhibition of prolyl endopeptidase was calculated by the formula: ((b-a)/b)×100, and the amount of a specific compound to achieve 50% inhibition (IC50) was determined.

[1] = tested on: experimental amnesia caused in rats by scopolamine; test: Preventive effect against experimental amnesia caused in rats by scopolamine (intraperitoneal administration); type: in vivo, Wister male rats; conditions: for No. of amnesic rats/No. of rats tested / Percentage amnesia: scopolamine 3 mg/kg i.p., assessed 24 and 48 hours after scopolamine
Procedure: (§1) Several of the anti-prolyl endopeptidase compounds of the present invention were checked for their ability to prevent the inhibition of long-term memory fixation by scopolamine. Solutions of physiological saline that contained selected compounds of the present inventions in varying amounts (20 mg, 2 mg, 0.2 mg and 0.02 mg/kg) were administered intraperitoneally once a day to Wister male rats (100-120 g). One hour after the administration, electric shocks were applied to the rats so that they would acquire passive avoidance learning. Immediately thereafter, scopolamine was administered intraperitoneally to each rat in an amount of 3 mg per kg of body weight.
(§2) The result of the test was assessed both 24 hours and 48 hours after the administration of scopolamine. The number of amnesic rats and that of sound rats were counted for each of the control group (rats which were not administered the test compounds but administered intraperitoneally only scopolamine and physiological saline) and the treated group (rats which were administered both the test compound and scopolamine).

[2] = Acute toxicity test in mice; conditions: mouse, in vivo, ip; single i.p. administration in DMSO/physiological saline, five mice per group, observed at 24 and 48 hours; read-out: Average dose (mg/kg) at which the group remained sound and showed no sign of intoxication
Procedure: The compounds of the present invention were checked for their acute toxicity in CDF-1 strain male mice (body weight: 27.2-30.1 g) purchased from Awazu Laboratory Animals Co., Ltd.
Test samples were prepared by dissolving the respective compounds in DMSO, and mixing with an equal amount of physiological saline. A portion (0.1 ml) of the so conditioned test sample was administered intraperitoneally to each of the mice used. Each of the tested groups consisted of five mice. At 24 and 48 hours of the administration, the mice were observed.

[3] = tested on: experimental amnesia caused in rats by scopolamine; test: Preventive effect against experimental amnesia caused in rats by scopolamine (oral administration); type: in vivo; conditions: for No. of amnesic rats/No. of rats tested / Percentage amnesia: scopolamine 3 mg/kg i.p.
Procedure: as §1, §2
Varying amounts (1, 5, 25 and 100 mg/kg) of the compound were administered orally to each of the rats and tested for its anti-amnesic effects by the same procedures as used in Example 9.

| Structure (SMILES) | IC50 (μg/test tube) (prolyl endopeptidase) | No. of amnesic rats/No. of rats tested ([1]; 0.2 mg/kg i.p.) | Percentage amnesia ([1]; 0.2 mg/kg i.p.) [%] | No. of amnesic rats/No. of rats tested ([1]; 2 mg/kg i.p.) | Percentage amnesia ([1]; 2 mg/kg i.p.) [%] | NOAEL at 48 h [2] [mg/kg] | No. of amnesic rats/No. of rats tested ([1]; 0.02 mg/kg i.p.) | Percentage amnesia ([1]; 0.02 mg/kg i.p.) [%] | effect in preventing amnesia (in words) ([1]; i.p. administration, Example 9) | No. of amnesic rats/No. of rats tested ([3]; 1 mg/kg p.o.) | Percentage amnesia ([3]; 1 mg/kg p.o.) [%] | No. of amnesic rats/No. of rats tested ([3]; 5 mg/kg p.o.) | Percentage amnesia ([3]; 5 mg/kg p.o.) [%] | No. of amnesic rats/No. of rats tested ([3]; 25 mg/kg p.o.) | Percentage amnesia ([3]; 25 mg/kg p.o.) [%] | No. of amnesic rats/No. of rats tested ([3]; 100 mg/kg p.o.) | Percentage amnesia ([3]; 100 mg/kg p.o.) [%] | oral amount giving the strongest anti-amnesic action ([3]; of 1, 5, 25 and 100 mg/kg administered orally to rats) [mg/kg] | No. of amnesic rats/No. of rats tested ([1]; 20 mg/kg i.p.) | Percentage amnesia ([1]; 20 mg/kg i.p.) [%] |
| --- | --- | --- | --- | --- | --- | --- | --- | --- | --- | --- | --- | --- | --- | --- | --- | --- | --- | --- | --- | --- |
| O=CC1CCCN1C(=O)Cc1ccccc1 (stereo not shown) [Compound No. 1] | 0.8 | 7/10 | 70 | 3/10 | 30 | 535 |  |  |  |  |  |  |  |  |  |  |  |  |  |  |
| O=CC1CCCN1C(=O)CCCc1ccccc1 (stereo not shown) [Compound No. 5] | 0.006 | 2/15 | 13 | 3/15 | 20 | 534 | 4/15 | 27 | particularly effective in preventing amnesia | 4/10 | 40 | 1/10 | 10 | 3/10 | 30 | 8/10 | 80 | 5 |  |  |
| COC(=O)[C@@H]1CCCN1C(=O)CCc1ccccc1 [Compound No. 4, N-(3-phenylpropionyl)-proline methyl ester] | 60 |  |  | 8/10 | 80 | 542 |  |  |  |  |  |  |  |  |  |  |  |  | 4/10 | 40 |
| COC(=O)C1CCCN1C(=O)CCCc1ccccc1 (stereo not shown) [Compound No. 6, N-(4-phenyl-n-butyryl)-proline methyl ester] | 25 | 5/10 | 50 | 3/10 | 30 | 536 |  |  |  |  |  |  |  |  |  |  |  |  |  |  |
| O=CC1CCCN1C(=O)CCc1ccccc1 (stereo not shown) [Compound No. 3, N-(3-phenylpropionyl)-prolinal] | 0.018 | 4/15 | 27 | 4/15 | 27 | 543 | 7/15 | 47 |  |  |  |  |  |  |  |  |  |  |  |  |
| O=CC1CCCN1C(=O)CCCCCc1ccccc1 (stereo not shown) [Sample prepared in Example 7, N-(6-phenyl-n-caproyl)-prolinal] | 0.35 |  |  |  |  |  |  |  |  |  |  |  |  |  |  |  |  |  |  |  |
| COC(=O)[C@@H]1CCCN1C(=O)Cc1ccccc1 [Compound No. 2, N-phenylacetyl-proline methyl ester] | 200 |  |  |  |  | 535 |  |  |  |  |  |  |  |  |  |  |  |  | 7/10 | 70 |
